Measured values: patent publication US20220128542A1, “TREATMENT EFFICIENCY EVALUATION” (TX MEDIC AB, priority 2019, published 2022)

Test system: brain of rats subjected to severe traumatic brain injury (sTBI)
Assay: Ingenuity pathway analysis of differentially regulated genes after sTBI (canonical pathways, diseases and molecular functions; Example 4)
Design: species or system rat
Conditions: 2 days after TBI
Experimental: Pathway analysis of the differentially regulated genes was carried out using the Ingenuity pathway analysis package. The analysis was performed with special reference to pathways and molecular processes and diseases associated with neurodegenerative disease, including dementia, Alzheimer's disease, ALS, TBI and stroke, and with scarring and fibrosis, including glaucoma and normal pressure hydrocephalus (NPH) after subarachnoid haemorrhage.

[1] = TBI + 1 mg/kg LMW-DS relative to control

sodium salt of dextran sulfate [LMW-DS]
Abdominal cancer (disease/function), z score (TBI + 1 mg/kg LMW-DS): −1.538 | Abdominal carcinoma (disease/function), z score (TBI + 1 mg/kg LMW-DS): −1.715 | Abdominal neoplasm (disease/function), z score (TBI + 1 mg/kg LMW-DS): −0.154 | Activation of blood cells (disease/function), z score (TBI + 1 mg/kg LMW-DS): 0.086 | Activation of cells (disease/function), z score (TBI + 1 mg/kg LMW-DS): 0.836 | Activation of leukocytes (disease/function), z score (TBI + 1 mg/kg LMW-DS): 0.086 | Activation of lymphocytes (disease/function), z score (TBI + 1 mg/kg LMW-DS): −1.158 | Adhesion of tumor cell lines (disease/function), z score (TBI + 1 mg/kg LMW-DS): 2.074 | Apoptosis (disease/function), z score (TBI + 1 mg/kg LMW-DS): −0.337 | Apoptosis of muscle cells (disease/function), z score (TBI + 1 mg/kg LMW-DS): 0.041 | Behavior (disease/function), z score (TBI + 1 mg/kg LMW-DS): 1.334 | Binding of tumor cell lines (disease/function), z score (TBI + 1 mg/kg LMW-DS): 2.397 | Carcinoma (disease/function), z score (TBI + 1 mg/kg LMW-DS): −0.127 | Cell death (disease/function), z score (TBI + 1 mg/kg LMW-DS): −0.793 | Cell death of blood cells (disease/function), z score (TBI + 1 mg/kg LMW-DS): 1.082 | Cell death of immune cells (disease/function), z score (TBI + 1 mg/kg LMW-DS): 1.001 | Cell movement (disease/function), z score (TBI + 1 mg/kg LMW-DS): 1.948 | Cell movement of muscle cells (disease/function), z score (TBI + 1 mg/kg LMW-DS): −0.26 | Cell movement of vascular smooth muscle cells (disease/function), z score (TBI + 1 mg/kg LMW-DS): −0.588 | Cell proliferation of T lymphocytes (disease/function), z score (TBI + 1 mg/kg LMW-DS): −1.097 | Cellular homeostasis (disease/function), z score (TBI + 1 mg/kg LMW-DS): 0.19 | Development of connective tissue cells (disease/function), z score (TBI + 1 mg/kg LMW-DS): −0.332 | Differentiation of bone cells (disease/function), z score (TBI + 1 mg/kg LMW-DS): −0.341 | Differentiation of connective tissue cells (disease/function), z score (TBI + 1 mg/kg LMW-DS): 0.73 | Differentiation of hematopoietic progenitor cells (disease/function), z score (TBI + 1 mg/kg LMW-DS): 0.487 | Differentiation of osteoclasts (disease/function), z score (TBI + 1 mg/kg LMW-DS): −0.223 | Digestive organ tumor (disease/function), z score (TBI + 1 mg/kg LMW-DS): −0.604 | Experimentally-induced arthritis (disease/function), z score (TBI + 1 mg/kg LMW-DS): −0.816 | Extracranial solid tumor (disease/function), z score (TBI + 1 mg/kg LMW-DS): 0.056 | Genital tumor (disease/function), z score (TBI + 1 mg/kg LMW-DS): 0.13 | IL-1 Signaling canonical pathway, effect (TBI + 1 mg/kg LMW-DS): Inhibited | Incidence of tumor (disease/function), z score (TBI + 1 mg/kg LMW-DS): −1.131 | Inflammation of absolute anatomical region (disease/function), z score (TBI + 1 mg/kg LMW-DS): −1.359 | Inflammation of body cavity (disease/function), z score (TBI + 1 mg/kg LMW-DS): −1.757 | Inflammation of joint (disease/function), z score (TBI + 1 mg/kg LMW-DS): −0.053 | Inflammation of organ (disease/function), z score (TBI + 1 mg/kg LMW-DS): −1.295 | Inflammatory response (disease/function), z score (TBI + 1 mg/kg LMW-DS): 1.159 | Interaction of mononuclear leukocytes (disease/function), z score (TBI + 1 mg/kg LMW-DS): 1.626 | Leukocyte migration (disease/function), z score (TBI + 1 mg/kg LMW-DS): 1.296 | Leukopoiesis (disease/function), z score (TBI + 1 mg/kg LMW-DS): 1.185 | Lymphopoiesis (disease/function), z score (TBI + 1 mg/kg LMW-DS): 0.583 | Malignant solid tumor (disease/function), z score (TBI + 1 mg/kg LMW-DS): −0.562 | Migration of cells (disease/function), z score (TBI + 1 mg/kg LMW-DS): 2.093 | Necrosis (disease/function), z score (TBI + 1 mg/kg LMW-DS): −0.361 | Non-hematologic malignant neoplasm (disease/function), z score (TBI + 1 mg/kg LMW-DS): −0.243 | Osteoarthritis Pathway canonical pathway, effect (TBI + 1 mg/kg LMW-DS): Inhibited | Pelvic tumor (disease/function), z score (TBI + 1 mg/kg LMW-DS): −0.651 | Proliferation of blood cells (disease/function), z score (TBI + 1 mg/kg LMW-DS): −1.083 | Proliferation of lymphatic system cells (disease/function), z score (TBI + 1 mg/kg LMW-DS): −1.112 | Proliferation of lymphocytes (disease/function), z score (TBI + 1 mg/kg LMW-DS): −0.852 | Quantity of blood cells (disease/function), z score (TBI + 1 mg/kg LMW-DS): −1.479 | Quantity of bone (disease/function), z score (TBI + 1 mg/kg LMW-DS): −1.985 | Quantity of cells (disease/function), z score (TBI + 1 mg/kg LMW-DS): −0.765 | Quantity of connective tissue cells (disease/function), z score (TBI + 1 mg/kg LMW-DS): 0.637 | Quantity of leukocytes (disease/function), z score (TBI + 1 mg/kg LMW-DS): −1.163 | Quantity of lymphatic system cells (disease/function), z score (TBI + 1 mg/kg LMW-DS): −0.701 | Quantity of phagocytes (disease/function), z score (TBI + 1 mg/kg LMW-DS): −2.061 | Rheumatic Disease (disease/function), z score (TBI + 1 mg/kg LMW-DS): −0.053 | Role of NFAT in Regulation of the Immune Response canonical pathway, effect (TBI + 1 mg/kg LMW-DS): Activated | Solid tumor (disease/function), z score (TBI + 1 mg/kg LMW-DS): −0.186 | Survival of organism (disease/function), z score (TBI + 1 mg/kg LMW-DS): −0.095 | Synthesis of hormone (disease/function), z score (TBI + 1 mg/kg LMW-DS): 0.977 | Thrombus (disease/function), z score (TBI + 1 mg/kg LMW-DS): 1 | Transcription of RNA (disease/function), z score (TBI + 1 mg/kg LMW-DS): 1.519 | Transport of molecule (disease/function), z score (TBI + 1 mg/kg LMW-DS): 2.421 | IL-1 Signaling canonical pathway, z score [1]: −1 | Osteoarthritis Pathway canonical pathway, z score [1]: −1.342 | Role of NFAT in Regulation of the Immune Response canonical pathway, z score [1]: 0.378 | Abdominal cancer (disease/function), z score (TBI + 5 mg/kg LMW-DS): −2.553 | Abdominal carcinoma (disease/function), z score (TBI + 5 mg/kg LMW-DS): −2.631 | Abdominal neoplasm (disease/function), z score (TBI + 5 mg/kg LMW-DS): −0.927 | Adrenomedullin Signaling pathway canonical pathway, effect (TBI + 5 mg/kg LMW-DS): Inhibited
